Measurements from patent US20080187935A1, “Homo and Heterodimer Proteins of the Abcg Family, Methods For Detection and Screening Modulators Thereof” (priority 2004, published 2008).

Key:
human ABCG1 = target: T1, human ABCG1 (Homo sapiens, UniProt P45844); experiment: vanadate-sensitive ATPase activity of ABCG1 in isolated Sf9 membranes; type: biochemical; conditions: for effect on ABCG1 ATPase activity (in words): Sf9 membranes, 3.3 mM MgATP
T1 construct: made in house; host or cells: Sf9 insect cells (baculovirus), isolated membranes
Method: (§1) Recombinant baculoviruses carrying transporter cDNA were generated with BaculoGold Transfection Kit (Pharmingen), in accordance with the manufacturer's protocol. The titer of virus supernatants were determined in order to express the same amount of each proteins, Sf9 (Spodoptera frugiperda ovarian) cells (Invitrogen) were infected and cultured according to the procedures described previously (19). Briefly, about 3×10^7 cells were infected with 3 ml of virus supernatant in case of homodimer expression and 1.5-1.5 ml of virus supernatants in case of heterodimer expression. The virus-infected Sf9 cells were cultured in T150 culture flasks with 30 ml of medium for the times indicated. The cells were harvested by scraping them into Tris-mannitol buffer (50 mM Tris, pH 7.0, with HCl, containing 300 mM mannitol and 0.5 mM phenylmethylsulfonyl fluoride).
For membrane preparation the cells were lysed and homogenized using a glass-Teflon tissue homogenizer in TMEP (50 mM Tris, pH 7.0, with HCl, containing 50 mM mannitol, 2 mM EGTA-Tris, 10 µg/ml leupeptin, 8 µg/ml aprotinin, 0.5 mM phenylmethylsulfonyl fluoride, and 2 mM dithiothreitol), and the undisrupted cells and nuclear debris were removed by centrifugation at 500×g for 10 min. The supernatant fluid was then centrifuged for 60 min at 100,000×g and the pellet containing the membranes resuspended in TMEP at a protein concentration of 2-3 mg/ml. All procedures were carried out at 4° C., and the membranes were stored at −70° C.
(§2) The ATPase activity of the isolated Sf9 cell membranes was estimated by measuring inorganic phosphate liberation. Membrane suspensions (about 20 μg of membrane protein, as determined by a modified Lowry method) were incubated at 37° C. for 20-min in 0.15 ml of a medium containing 40 mM MOPS-Tris (pH 7.0), 0.5 mM EGTA-Tris (pH 7.0), 2 mM dithiothreitol, 50 mM KCl, 1 mM ouabain and 5 mM sodium azide, and the ATPase reaction was started by the addition of 3.3 mM MgATP. The indicated drugs (obtained from Sigma) were added in dimethyl sulfoxide. The final concentration of dimethyl sulfoxide in the assay medium was 1%. […] The reactions were stopped by the addition of 0.1 ml of 5% SDS solution and the amount of inorganic phosphate determined immediately. Inorganic phosphate was measured by colorimetric reaction (19). The points plotted in the figures indicate the means of triplicate determinations.

human ABCG4 = target: T2, human ABCG4 (Homo sapiens, UniProt Q9H172); experiment: vanadate-sensitive ATPase activity of ABCG4 in isolated Sf9 membranes; type: biochemical
T2 construct: made in house; host or cells: Sf9 insect cells (baculovirus), isolated membranes; cDNA from I.M.A.G.E. clone 1537140
Method: Recombinant baculoviruses carrying transporter cDNA were generated with BaculoGold Transfection Kit (Pharmingen), in accordance with the manufacturer's protocol. The titer of virus supernatants were determined in order to express the same amount of each proteins, Sf9 (Spodoptera frugiperda ovarian) cells (Invitrogen) were infected and cultured according to the procedures described previously (19). Briefly, about 3×10^7 cells were infected with 3 ml of virus supernatant in case of homodimer expression and 1.5-1.5 ml of virus supernatants in case of heterodimer expression. The virus-infected Sf9 cells were cultured in T150 culture flasks with 30 ml of medium for the times indicated. […] The supernatant fluid was then centrifuged for 60 min at 100,000×g and the pellet containing the membranes resuspended in TMEP at a protein concentration of 2-3 mg/ml. All procedures were carried out at 4° C., and the membranes were stored at −70° C. The ATPase activity of the isolated Sf9 cell membranes was estimated by measuring inorganic phosphate liberation. […] The indicated drugs (obtained from Sigma) were added in dimethyl sulfoxide. The final concentration of dimethyl sulfoxide in the assay medium was 1%. […] The reactions were stopped by the addition of 0.1 ml of 5% SDS solution and the amount of inorganic phosphate determined immediately. Inorganic phosphate was measured by colorimetric reaction (19). […]

ABCG1K124M = target: T3, ABCG1K124M (Homo sapiens, UniProt P45844, K124M); experiment: ATPase activity of catalytic site mutant ABCG1K124M in Sf9 membranes; type: biochemical; conditions: data not shown
T3 construct: made in house; host or cells: Sf9 insect cells (baculovirus), isolated membranes
Method: as §1, with “The cells were harvested by scraping them into Tris-mannitol buffer (50 mM Tris, pH 7.0, with HCl, containing 300 mM mannitol and 0.5 mM phenylmethylsulfonyl fluoride).” left out
as §2, with “MgATP.” for “MgATP. The indicated drugs (obtained from Sigma) were added in dimethyl sulfoxide. The final concentration of dimethyl sulfoxide in the assay medium was 1%.”, “The points plotted in the figures indicate the means of triplicate determinations.” left out

ABCG2R482G = target: T4, ABCG2R482G (Homo sapiens, UniProt Q9UNQ0, R482G); conditions: Özvegy C et al., 2001, cited from earlier work
T4 construct: host or cells: Sf9 membranes
T4 sequence (Q9UNQ0 1-655 R482G): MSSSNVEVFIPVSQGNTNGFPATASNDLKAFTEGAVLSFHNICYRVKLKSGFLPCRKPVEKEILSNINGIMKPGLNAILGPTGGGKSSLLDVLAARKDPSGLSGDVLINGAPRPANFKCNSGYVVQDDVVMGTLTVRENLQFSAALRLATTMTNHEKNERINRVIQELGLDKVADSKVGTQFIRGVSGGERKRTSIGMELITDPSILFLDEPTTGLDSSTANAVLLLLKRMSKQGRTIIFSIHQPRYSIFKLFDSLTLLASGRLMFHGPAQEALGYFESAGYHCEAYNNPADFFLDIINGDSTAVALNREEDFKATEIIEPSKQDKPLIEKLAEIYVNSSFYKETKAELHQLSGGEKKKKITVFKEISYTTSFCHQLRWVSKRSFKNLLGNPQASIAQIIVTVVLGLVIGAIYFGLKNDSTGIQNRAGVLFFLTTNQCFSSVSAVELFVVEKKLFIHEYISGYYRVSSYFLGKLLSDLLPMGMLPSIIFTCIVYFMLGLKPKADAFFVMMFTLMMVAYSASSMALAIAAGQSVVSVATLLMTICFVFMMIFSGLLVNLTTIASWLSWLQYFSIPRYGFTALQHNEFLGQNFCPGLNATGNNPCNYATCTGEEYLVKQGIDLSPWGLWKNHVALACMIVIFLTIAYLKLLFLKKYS

ABCG1/ABCG4 = target: T5, ABCG1/ABCG4 (Homo sapiens, UniProt P45844+Q9H172); experiment: ATPase activity of co-expressed ABCG1/ABCG4 in Sf9 membranes; type: biochemical; conditions: various concentrations, data not shown
T5 construct: made in house; host or cells: Sf9 insect cells co-infected with both baculoviruses, isolated membranes
Method: as §1, with “The cells were harvested by scraping them into Tris-mannitol buffer (50 mM Tris, pH 7.0, with HCl, containing 300 mM mannitol and 0.5 mM phenylmethylsulfonyl fluoride).” left out
as §2, with “MgATP.” for “MgATP. The indicated drugs (obtained from Sigma) were added in dimethyl sulfoxide. The final concentration of dimethyl sulfoxide in the assay medium was 1%.”, “The points plotted in the figures indicate the means of triplicate determinations.” left out

T2 sequence (Q9H172 whole entry): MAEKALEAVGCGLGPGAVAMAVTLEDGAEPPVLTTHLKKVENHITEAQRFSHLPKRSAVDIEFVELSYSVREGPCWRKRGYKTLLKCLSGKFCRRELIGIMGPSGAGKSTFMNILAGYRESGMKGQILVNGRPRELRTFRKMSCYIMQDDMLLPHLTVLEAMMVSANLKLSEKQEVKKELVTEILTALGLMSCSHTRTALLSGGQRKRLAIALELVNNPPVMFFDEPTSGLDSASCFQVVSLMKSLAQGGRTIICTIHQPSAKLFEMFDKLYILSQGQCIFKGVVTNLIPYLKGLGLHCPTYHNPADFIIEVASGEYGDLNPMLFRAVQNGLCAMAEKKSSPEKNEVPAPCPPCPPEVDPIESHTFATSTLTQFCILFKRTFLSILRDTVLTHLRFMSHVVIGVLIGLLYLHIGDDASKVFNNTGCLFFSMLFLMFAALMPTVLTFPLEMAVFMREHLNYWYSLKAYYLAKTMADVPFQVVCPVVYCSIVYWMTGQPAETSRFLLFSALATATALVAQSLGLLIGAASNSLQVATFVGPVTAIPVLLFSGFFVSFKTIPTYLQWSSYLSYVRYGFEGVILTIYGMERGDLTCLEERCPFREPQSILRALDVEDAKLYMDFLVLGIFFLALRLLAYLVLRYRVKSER

NC(=NCc1ccccc1)NC(=O)c1nc(Cl)c(N)nc1N [Benzamil, benzamil]
Ki (human ABCG1; inhibition of ABCG1 ATPase activity): ~0.5 µM

rhodamine123
increase of ATPase activity of ABCG1 (human ABCG1; 20 μM rhodamine123): increased almost two fold
rhodamine123 stimulated ATPase activity (human ABCG1; ABCG1 co-expressed with β-Gal, 100 μM rhodamine123, units = nanomoles Pi/mg membrane protein/min, basal 19.2±1.24, SEM, n=3): 33.6±0.65 units
effect on ABCG1 ATPase activity (in words) (human ABCG1): substantially stimulate
EC50 (human ABCG1; stimulation of ABCG1 ATPase activity, read-out: Kact): ~10 µM
effect on ABCG4 ATPase activity (in words) (human ABCG4): no effect
effect on ABCG1K124M ATPase activity (in words) (ABCG1K124M): negligible
stimulation of ABCG2R482G mutant ATPase activity (ABCG2R482G): about 1.4 fold

N[C@@H](Cc1cc(I)c(Oc2cc(I)c(O)c(I)c2)c(I)c1)C(=O)O [L-thyroxine]
effect on ABCG1 ATPase activity (in words) (human ABCG1): inhibited ABCG1

Nc1ncnc2c1ncn2[C@@H]1O[C@H](COP(=O)(O)OP(=O)(O)OP(=O)(O)O)[C@@H](O)[C@H]1O [ATP]
Km (human ABCG1; with or without 100 μM rhodamine123, read-out: Km for ATP): ~500 µM
Km (ABCG2R482G; read-out: Km for ATP): ~600 µM

cyclosporin A
effect on ABCG1 ATPase activity (in words) (human ABCG1): inhibited ABCG1 ATPase activity at low concentrations

Nc1c(O)cccc1C(=O)C[C@H](N)C(=O)O [3-OH kynurenine, 3-OH-kynurenine]
effect on ABCG1 ATPase activity (in words) (human ABCG1): could not detect a change in activity
effect on ABCG4 ATPase activity (in words) (human ABCG4): could not detect a change in activity
effect on ATPase activity of co-expressed ABCG1/ABCG4 (in words) (ABCG1/ABCG4): could not detect a change in activity

COc1ccc2c3c([nH]c2c1)[C@H](CC(C)C)N1C(=O)[C@H](CCC(=O)OC(C)(C)C)NC(=O)[C@@H]1C3 [Ko143]
effect on ABCG1 ATPase activity (in words) (human ABCG1): no effect
